Reference: PMC9781003, “Two Antenna-Enriched Odorant Binding Proteins in Dioryctria abietella Tuned to General Odorants and Insecticides” (Insects, 2022)
Values joined by “and” are separate entries in the source; they are usually repeats but may differ in a detail not shown here. Equal values may be shown once. Read-outs that look alike come from different tables or passages of the source.

How the values were obtained:
DabiOBP5 = molecular target: T1, DabiOBP5 (Dioryctria abietella, UniProt A0A8E6HS34); assay: Competitive fluorescence binding assay with 1-NPN probe, recombinant DabiOBP5
T1 sequence (A0A8E6HS34 19-139): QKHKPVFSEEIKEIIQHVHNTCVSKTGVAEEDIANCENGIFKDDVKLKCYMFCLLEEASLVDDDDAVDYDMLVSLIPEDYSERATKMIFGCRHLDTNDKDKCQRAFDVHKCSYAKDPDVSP
Description: In the binding assays, we selected 100 compounds derived from host/non-host plants and man-made insecticides widely used for the control of lepidopteran pests, representing 88 general odorants (21 esters, 21 alcohols, 14 aldehydes, 13 alkenes, seven ketones, 11 alkanes and one acid) and 12 insecticides. These compounds and N-phenyl-1-naphthylamine (1-NPN) were purchased from Aladdin and Sigma-Aldrich, with the highest available purity. […] The concentrations of the work solution for each ligand and 1-NPN were set at 1 mM.
In order to measure the binding properties of the DabiOBPs to the 100 ligands, competitive binding assays were performed on a RF5301PC fluorescence spectrophotometer (Shimadzu, Japan). The concentrations of DabiOBPs and the fluorescent probe 1-NPN were set at 2 μM. […] Accordingly, binding constants (K1-NPN) of the DabiOBPs and 1-NPN were calculated using GraphPad Prism 7 (GraphPad Software Inc., San Diego, CA). […] For the ligands replacing over a half of 1-NPN fluorescence (50%) at 20 μM, three replicates were performed. The excitation wavelength was set at 337 nm and the emission peaks were recorded at around 400 nm.

DabiOBP14 = assay type: binding, Dioryctria abietella; conditions: for Ki: competitive displacement of 1-NPN, three replicates, mean ± SE, read-out: OBP14 Ki (dissociation constant)
Method: In the binding assays, we selected 100 compounds derived from host/non-host plants and man-made insecticides widely used for the control of lepidopteran pests, representing 88 general odorants (21 esters, 21 alcohols, 14 aldehydes, 13 alkenes, seven ketones, 11 alkanes and one acid) and 12 insecticides. These compounds and N-phenyl-1-naphthylamine (1-NPN) were purchased from Aladdin and Sigma-Aldrich, with the highest available purity. They were first diluted into 100 mM, using methanol (HPLC purity grade, ≥99.9%) as a stock solution. The concentrations of the work solution for each ligand and 1-NPN were set at 1 mM.
In order to measure the binding properties of the DabiOBPs to the 100 ligands, competitive binding assays were performed on a RF5301PC fluorescence spectrophotometer (Shimadzu, Japan). The concentrations of DabiOBPs and the fluorescent probe 1-NPN were set at 2 μM. The binding of DabiOBPs to 1-NPN in 20 mM Tris-HCl buffer (pH 7.4) was measured by adding final concentrations of 2–16 μM 1-NPN. Accordingly, binding constants (K1-NPN) of the DabiOBPs and 1-NPN were calculated using GraphPad Prism 7 (GraphPad Software Inc., San Diego, CA). The binding of the DabiOBPs to various ligands was conducted by adding different concentrations of ligands (2, 4, 6, 8, 12, 16 and 20 μM) into the DabiOBP5/1-NPN (each 2 μM) or DabiOBP14/1-NPN (each 2 μM) mixtures. For the ligands replacing over a half of 1-NPN fluorescence (50%) at 20 μM, three replicates were performed. The excitation wavelength was set at 337 nm and the emission peaks were recorded at around 400 nm. The dissociation constants (Ki) of the tested ligands to DabiOBPs were computed, using the equation: Ki = [IC50]/(1 + [1-NPN]/K1-NPN), where [1-NPN] was the free concentration of 1-NPN and IC50 was the concentration of ligands replacing 50% of 1-NPN fluorescence.

[1] = ligand at 20 μM; DabiOBP5/1-NPN each 2 μM; Tris-HCl pH 7.4; NB = no binding; read-out: OBP5 F.D. (%) fluorescence displacement percent
[2] = ligand at 20 μM, DabiOBP14/1-NPN each 2 μM, Tris-HCl pH 7.4, NB = no binding
[3] = ligand at 20 μM; DabiOBP5/1-NPN each 2 μM; Tris-HCl pH 7.4; NB = no binding
[4] = pH 7.4, read-out: OBP5 F.D. (%) fluorescence displacement percent
[5] = read-out: OBP5 Ki (dissociation constant); competitive displacement of 1-NPN; three replicates; mean ± SE

| Compound | inhibition at 20 µM (DabiOBP5; [1]) [%] | OBP14 F.D. (%) fluorescence displacement percent (DabiOBP14; [2]) [%] | further results |
| --- | --- | --- | --- |
| N#Cc1nn(-c2c(Cl)cc(C(F)(F)F)cc2Cl)c(N)c1[S+]([O-])C(F)(F)F (centres unmarked) [Fipronil] | 23.7 | 29.70 | – |
| CC(C)=CCC/C(C)=C/CO [Geraniol] | 32.9 | 28.67 | – |
| CC(=O)OC/C=C(\C)CCC=C(C)C [Geranyl acetate] | 26.5 | 27.39 | – |
| CCCCCCC=O [Heptanal] | 42.5 | 25.87 | – |
| CCCCCCC [Heptane] | 31.4 | 22.91 | – |
| CCCCCCCOC(C)=O [Heptyl acetate] | 41 | 33.70 | – |
| CCCCCC=O [Hexanal] | 39.3 | 32.96 | – |
| CCCCCCOC(C)=O [Hexyl acetate] | 23.7 | 29.22 | – |
| O=[N+]([O-])NC1=NCCN1Cc1ccc(Cl)nc1 [Imidacloprid] | 22.5 | 39.56 | – |
| CCCCCCCCCCCC(=O)O [Lauric acid] | – | 30.18 | OBP5 F.D. (%) fluorescence displacement percent (DabiOBP5; [3]): 33.87% |
| C=C(C)[C@H]1CC=C(C)CC1 [Limonene] | – | 30.81 | OBP5 F.D. (%) fluorescence displacement percent (DabiOBP5; [3]): 38.31% |
| C=CC(C)(O)CCC=C(C)C (centres unmarked) [Linalool] | 33.3 | 31.71 | – |
| O=C1CCC[C@@H]2[C@H]3CCCN4CCC[C@@H](CN12)[C@@H]34 [Matrine] | 29 | 29.59 | – |
| COC(C)=O [Methyl acetate] | – | 27.21 | OBP5 F.D. (%) fluorescence displacement percent (DabiOBP5; [3]): 27.62% |
| COC(=O)c1ccccc1 [Methyl benzoate] | 30.5 | 30.65 | – |
| CCCCCCCCCCCC(=O)OC [Methyl laurate] | 7.25 | 12.60 | – |
| C=CC(=C)CCC=C(C)C [Myrcene] | 37.1 | 34.84 | – |
| CCCCCCCCCCCCCCCCCCC [Nonadecane] | 27.7 | 15.30 | – |
| CCCCCCCCC=O [Nonanal] | 31.5 | 23.55 | – |
| CCCCCCCCCOC(C)=O [Nonyl acetate] | 16.5 | 22.98 | – |
| C=CC(C)=CCC=C(C)C [Ocimene] | – | 33.18 | OBP5 F.D. (%) fluorescence displacement percent (DabiOBP5; [3]): 33.97% |
| CCCCCCCCCCCCCCCCCC [Octadecane] | 26.5 | 23.94 | – |
| CCCCCCCC=O [Octanal] | 35.6 | 34.48 | – |
| CCCCCCCCOC(C)=O [Octyl acetate] | 35.4 | 30.09 | – |
| OCCc1ccccc1 [Phenethyl alcohol] | 37.6 | 10.00 | – |

| Compound | inhibition at 20 µM (DabiOBP5; [1]) [%] | OBP14 F.D. (%) fluorescence displacement percent (DabiOBP14; [2]) [%] | further results |
| --- | --- | --- | --- |
| O=C(Oc1ccccc1)c1ccccc1 [Phenyl benzoate] | 31.7 | 34.36 | – |
| O=CCc1ccccc1 [Phenylacetaldehyde] | 29.1 | 33.05 | – |
| CCOP(=S)(OCC)O/N=C(\C#N)c1ccccc1 [Phoxim] | – | 89.62 | inhibition at 20 µM (DabiOBP5; [4]): 82%; Ki (DabiOBP5; [5]): < 13 µM and 2.89 µM; Ki (DabiOBP14; listed as phoxim): < 13 µM; Ki (DabiOBP14): 2.38 ± 0.28 µM |
| CCCOC(C)=O [Propyl acetate] | 31.4 | 25.46 | – |
| C=C(C)[C@H]1Cc2c(ccc3c2O[C@@H]2COc4cc(OC)c(OC)cc4[C@@H]2C3=O)O1 [Rotenone] | – | 58.66 | inhibition at 20 µM (DabiOBP5; [4]): 56%; Ki (DabiOBP5; [5]): < 13 µM and 12.7 µM; Ki (DabiOBP14): < 13 µM and 10.2 µM |
| CC(C)=CCC/C(C)=C/CC/C(C)=C/CC/C=C(\C)CC/C=C(\C)CCC=C(C)C [Squalene] | 32.3 | 24.81 | – |
| COc1cc(C=O)cc(OC)c1O [Syringaldehyde] | 38.5 | 34.32 | – |
| CCCCCCCCCCCCCC [Tetradecane] | 25 | 27.13 | – |
| CCCCCCCCCCCCCCCCCCCCCCC [Tricosane] | 32.8 | 27.90 | – |
| CCCCCCCCCCC=O [Undecanal] | 27.8 | 35.28 | – |
| CCCCCCCCCCC [Undecane] | 4.42 | 6.47 | – |
| CCC/C=C\C=O [Z2-Hexenal] | – | 33.09 | OBP5 F.D. (%) fluorescence displacement percent (DabiOBP5; [3]): 39.42% |
| CC/C=C\CCO [Z3-Hexen-1-ol] | – | 24.52 | OBP5 F.D. (%) fluorescence displacement percent (DabiOBP5; [3]): 28.57% |
| CC/C=C\CCOC(C)=O [Z3-Hexenyl acetate] | – | 31.25 | OBP5 F.D. (%) fluorescence displacement percent (DabiOBP5; [3]): 27.72% |
| CC/C=C\CCOC(=O)CCC [Z3-Hexenyl butyrate] | – | – | OBP5 F.D. (%) fluorescence displacement percent (DabiOBP5; [3]): 20.80%; OBP14 F.D. (%) fluorescence displacement percent (DabiOBP14; pH 7.4): 26.39% |
| CC1=CC[C@H](C(C)C)C=C1 [α-Phellandrene] | 37.4 | 36.07 | – |
| CC1=CCC2CC1C2(C)C (stereo not drawn) [α-Pinene] | 25.1 | 29.24 | – |
| CC1=CC=C(C(C)C)CC1 [α-Terpinene] | 35.1 | 27.93 | – |
| CC1=CC[C@@H](C(C)(C)O)CC1 [α-Terpineol] | 33.9 | 30.28 | – |
| CC1=C(C=O)C(C)(C)CCC1 [β-Cyclocitral] | – | 32.77 | OBP5 F.D. (%) fluorescence displacement percent (DabiOBP5; [3]): 32.90% |
| CC(=O)/C=C/C1=C(C)CCCC1(C)C [β-Ionone] | 59.5 | 62.86 | Ki (DabiOBP5; competitive displacement of 1-NPN; three replicates; mean ± SE; listed as β-ionone; read-out: OBP5 Ki (dissociation constant)): < 13 µM; Ki (DabiOBP5; competitive displacement of 1-NPN; three replicates; mean ± SE; read-out: OBP5 Ki (dissociation constant)): 9.11 ± 1.03 µM; Ki (DabiOBP14; listed as β-ionone): < 13 µM; Ki (DabiOBP14): 8.39 ± 1.04 µM |
| CC1=CCC(C(C)C)=CC1 [γ-Terpinene] | 28.2 | 24.46 | – |
| Abamectin | – | 4.33 | OBP5 F.D. (%) fluorescence displacement percent (DabiOBP5; [3]): 24.16% |
| Farnesene | – | 17.77 | OBP5 F.D. (%) fluorescence displacement percent (DabiOBP5; [3]): 40.68% |
